Source: patent US20230233569A1 (Revolution Medicines, Inc., priority 2020, published 2023)

Tests used:
Assay in all cases: Ras-Raf disruption / FRET / MOA assay (BRAF RBD)
Type in all cases: biochemical
KRAS G12D = KRAS G12D (Homo sapiens, UniProt P01116+P62937, G12D); conditions: Ras-Raf disruption, with Cyclophilin A; read-out: KRAS G12D FRET data IC50
Excerpt: (§1) Disruption of […] Ras-binding Domain (BRAF^RBD) Interaction with K-Ras by Compounds of the Invention (also Called a FRET Assay or an MOA Assay)
(§2) Note—The following protocol describes a procedure for monitoring disruption of K-Ras G12C (GMP-PNP) binding to BRAF^RBD by a compound of the invention. This protocol may also be executed substituting other Ras proteins or nucleotides, such as K-Ras G12D and K-Ras G13D.
(§3) The purpose of this biochemical assay was to measure the ability of test compounds to facilitate ternary complex formation between a nucleotide-loaded K-Ras isoform and Cyclophilin A; the resulting ternary complex disrupts binding to a BRAF^RBD construct, inhibiting K-Ras signaling through a RAF effector. Data is reported as IC50 values.
(§4) In assay buffer containing 25 mM HEPES pH 7.3, 0.002% Tween20, 0.1% BSA, 100 mM NaCl and 5 mM MgCl2, tagless Cyclophilin A, His6-K-Ras-GMPPNP, and GST-BRAF^RBD were combined in a 384-well assay plate at final concentrations of 25 μM, 12.5 nM, and 50 nM, respectively. Compound was present in plate wells as a 10-point 3-fold dilution series starting at a final concentration of 30 μM. After incubation at 25° C. for 3 hours, a mixture of anti-His Eu-W1024 and anti-GST allophycocyanin was then added to assay sample wells at final concentrations of 10 nM and 50 nM, respectively, and the reaction incubated for an additional 1.5 hours. […] Compounds that facilitate disruption of a K-Ras:RAF complex were identified as those eliciting a decrease in the TR-FRET ratio relative to DMSO control wells.

KRAS G12S = KRAS G12S (Homo sapiens, UniProt P01116+P62937, G12S); conditions: Ras-Raf disruption, with Cyclophilin A; read-out: KRAS G12S FRET data IC50
KRAS G12S, sequence (P01116 1-169 isoform P01116-2 G12S limits assumed): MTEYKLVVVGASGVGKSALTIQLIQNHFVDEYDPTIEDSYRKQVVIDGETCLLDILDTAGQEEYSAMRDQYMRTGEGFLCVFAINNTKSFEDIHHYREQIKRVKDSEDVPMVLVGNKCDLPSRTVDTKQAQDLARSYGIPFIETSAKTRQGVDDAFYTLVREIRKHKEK
KRAS G12S, sequence (P62937 whole entry): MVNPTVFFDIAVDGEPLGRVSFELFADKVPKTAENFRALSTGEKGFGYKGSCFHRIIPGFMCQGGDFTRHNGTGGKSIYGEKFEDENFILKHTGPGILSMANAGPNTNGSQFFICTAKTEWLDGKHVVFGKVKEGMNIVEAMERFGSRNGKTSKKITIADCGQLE
Excerpt: as §1, §2, §3, §4

KRAS G12V = KRAS G12V (Homo sapiens, UniProt P01116+P62937, G12V); conditions: Ras-Raf disruption, with Cyclophilin A; read-out: KRAS G12V FRET data IC50
KRAS G12V, sequence (P01116 1-169 isoform P01116-2 G12V limits assumed): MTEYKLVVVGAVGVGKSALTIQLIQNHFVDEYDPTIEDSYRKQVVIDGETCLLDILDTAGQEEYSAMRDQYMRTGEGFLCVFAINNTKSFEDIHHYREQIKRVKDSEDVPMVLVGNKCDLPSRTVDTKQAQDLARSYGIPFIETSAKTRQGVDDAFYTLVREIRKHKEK
KRAS G12V, sequence (P62937 whole entry): as the sequence (P62937 whole entry) above
Excerpt: as §1, §2, §3, §4

KRAS G13C = KRAS G13C (Homo sapiens, UniProt P01116+P62937, G13C); conditions: Ras-Raf disruption, with Cyclophilin A; read-out: KRAS G13C FRET data IC50
KRAS G13C, sequence (P01116 1-169 isoform P01116-2 G13C limits assumed): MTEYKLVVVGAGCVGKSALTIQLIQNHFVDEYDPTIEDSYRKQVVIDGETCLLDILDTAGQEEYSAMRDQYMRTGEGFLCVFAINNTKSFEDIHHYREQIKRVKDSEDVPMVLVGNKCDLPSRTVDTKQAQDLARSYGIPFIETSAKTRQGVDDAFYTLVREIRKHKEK
KRAS G13C, sequence (P62937 whole entry): as the sequence (P62937 whole entry) above
Excerpt: as §1, §2, §3, §4

KRAS G13D = KRAS G13D (Homo sapiens, UniProt P01116+P62937, G13D); conditions: Ras-Raf disruption, with Cyclophilin A; read-out: KRAS G13D FRET data IC50
KRAS G13D, sequence (P01116 1-169 isoform P01116-2 G13D limits assumed): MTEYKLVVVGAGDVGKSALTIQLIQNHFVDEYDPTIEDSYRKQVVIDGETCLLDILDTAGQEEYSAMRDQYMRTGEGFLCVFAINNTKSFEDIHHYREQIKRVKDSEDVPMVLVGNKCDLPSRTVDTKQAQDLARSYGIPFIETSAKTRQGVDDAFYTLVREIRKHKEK
KRAS G13D, sequence (P62937 whole entry): as the sequence (P62937 whole entry) above
Excerpt: as §1, §2, §3, §4

KRAS WT = KRAS WT (Homo sapiens, UniProt P01116+P62937); conditions: Ras-Raf disruption, with Cyclophilin A; read-out: KRAS WT FRET data IC50
KRAS WT, sequence (P01116 1-169 isoform P01116-2 limits assumed): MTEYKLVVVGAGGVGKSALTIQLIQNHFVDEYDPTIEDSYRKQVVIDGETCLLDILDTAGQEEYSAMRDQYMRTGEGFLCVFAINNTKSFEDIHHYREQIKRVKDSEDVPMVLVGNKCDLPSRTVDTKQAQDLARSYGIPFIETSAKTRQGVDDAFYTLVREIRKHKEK
KRAS WT, sequence (P62937 whole entry): as the sequence (P62937 whole entry) above
Excerpt: as §1, §2, §3, §4

NRAS G12C = NRAS G12C (Homo sapiens, UniProt P01111+P62937, G12C); conditions: NRAS G12C; read-out: NRAS G12C FRET data IC50
NRAS G12C, sequence (P01111 whole entry G12C): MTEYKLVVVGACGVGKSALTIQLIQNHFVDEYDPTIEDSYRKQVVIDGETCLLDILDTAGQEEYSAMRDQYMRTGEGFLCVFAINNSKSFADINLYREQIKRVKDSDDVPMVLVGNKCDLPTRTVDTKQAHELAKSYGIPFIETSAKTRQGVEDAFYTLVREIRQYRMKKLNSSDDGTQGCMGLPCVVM
NRAS G12C, sequence (P62937 whole entry): as the sequence (P62937 whole entry) above
Excerpt: as §1, §2, §3, §4

KRAS G12C = KRAS G12C (Homo sapiens, UniProt P01116+P62937, G12C); conditions: Ras-Raf disruption, with Cyclophilin A; read-out: KRAS G12C FRET data IC50
KRAS G12C, sequence (P01116 1-169 isoform P01116-2 G12C limits assumed): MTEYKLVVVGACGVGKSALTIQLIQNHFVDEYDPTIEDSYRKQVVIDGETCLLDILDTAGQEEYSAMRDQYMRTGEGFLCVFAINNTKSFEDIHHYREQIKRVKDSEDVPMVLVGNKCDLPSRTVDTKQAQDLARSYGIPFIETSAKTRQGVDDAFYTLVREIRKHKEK
KRAS G12C, sequence (P62937 whole entry): as the sequence (P62937 whole entry) above
Excerpt: as §1, §2, §3, §4
as §3, with “is” for “was”, “Ras” for “K-Ras”, “cyclophilin” for “Cyclophilin”, “effector.” for “effector. Data is reported as IC50 values.”
In assay buffer containing 25 mM HEPES pH 7.3, 0.002% Tween20, 0.1% BSA, 100 mM NaCl and 5 mM MgCl2, tagless Cyclophilin A, His6-K-Ras-GMPPNP (or other Ras variant), and GST-BRAF^RBD are combined in a 384-well assay plate at final concentrations of 25 μM, 12.5 nM and 50 nM, respectively. Compound is present in plate wells as a 10-point 3-fold dilution series starting at a final concentration of 30 μM. After incubation at 25° C. for 3 hours, a mixture of Anti-His Eu-W1024 and anti-GST allophycocyanin is then added to assay sample wells at final concentrations of 10 nM and 50 nM, respectively, and the reaction incubated for an additional 1.5 hours. […] Compounds that facilitate disruption of a Ras:RAF complex are identified as those eliciting a decrease in the TR-FRET ratio relative to DMSO control wells.

KRAS G12D, sequence (P01116 1-169 isoform P01116-2 G12D limits assumed): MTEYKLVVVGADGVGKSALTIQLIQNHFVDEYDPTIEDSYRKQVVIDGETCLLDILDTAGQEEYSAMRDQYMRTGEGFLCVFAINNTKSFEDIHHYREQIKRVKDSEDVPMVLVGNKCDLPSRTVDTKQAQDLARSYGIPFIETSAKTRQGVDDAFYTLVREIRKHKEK
KRAS G12D, sequence (P62937 whole entry, the tested form may be a part): as the sequence (P62937 whole entry) above

SMILES	IC50 (KRAS G12D) [nM]	IC50 (KRAS G12S) [nM]	IC50 (KRAS G12V) [nM]	IC50 (KRAS G13C) [nM]	IC50 (KRAS G13D) [nM]	IC50 (KRAS WT) [nM]	IC50 (NRAS G12C) [nM]	IC50 (KRAS G12C) [nM]
CCn1c(-c2cccnc2[C@H](C)OC)c2c3cc(ccc31)-c1cccc(c1)C[C@H](NC(=O)[C@H](C(C)C)N(C)C(=O)[C@H]1C[C@H](N=C=NCCOC)C1)C(=O)N1CCC[C@H](N1)C(=O)OCC(C)(C)C2 [Example 78]	1000 to 10000	1000 to 10000	1000 to 10000	10 to 100	> 10000	1000 to 10000	10 to 100	10 to 100
CCn1c(-c2cccnc2[C@H](C)OC)c2c3cc(ccc31)-c1cc(O)cc(c1)C[C@H](NC(=O)[C@H](C(C)C)N(C)C(=O)c1ncc(NC(=O)[C@@H]3CN3)n1C)C(=O)N1CCC[C@H](N1)C(=O)OCC(C)(C)C2 [Example 83]	100 to 1000	10 to 100	10 to 100	10 to 100	10 to 100	10 to 100	10 to 100	10 to 100
CCn1c(-c2cccnc2[C@H](C)OC)c2c3cc(ccc31)-c1cc(O)cc(c1)C[C@H](NC(=O)[C@H](C(C)C)N(C)C(=O)c1ncc(NC(=O)[C@H]3CN3)n1C)C(=O)N1CCC[C@H](N1)C(=O)OCC(C)(C)C2 [Example 84]	1000 to 10000	100 to 1000	100 to 1000	< 10	100 to 1000	100 to 1000	10 to 100	10 to 100
CCn1c(-c2cccnc2[C@H](C)OC)c2c3cc(ccc31)-c1cc(O)cc(c1)C[C@H](NC(=O)[C@H](C(C)C)N(C)C(=O)C1CCN(C(=O)[C@H]3CN3)CC1)C(=O)N1CCC[C@H](N1)C(=O)OCC(C)(C)C2 [Example 86]	100 to 1000	10 to 100	100 to 1000	10 to 100	10 to 100	10 to 100	< 10	10 to 100
CCn1c(-c2cccnc2[C@H](C)OC)c2c3cc(ccc31)-c1cc(O)cc(c1)C[C@H](NC(=O)[C@H](C(C)C)N(C)C(=O)c1ccc([C@@H]3CN3)nc1)C(=O)N1CCC[C@H](N1)C(=O)OCC(C)(C)C2 [Example 87]	1000 to 10000	100 to 1000	100 to 1000	10 to 100	100 to 1000	100 to 1000	10 to 100	10 to 100
CCn1c(-c2cccnc2[C@H](C)OC)c2c3cc(ccc31)-c1cc(O)cc(c1)C[C@H](NC(=O)[C@H](C(C)C)N(C)C(=O)C1CCN(C(=O)[C@@H]3CN3)CC1)C(=O)N1CCC[C@H](N1)C(=O)OCC(C)(C)C2 [Example 89]	100 to 1000	10 to 100	100 to 1000	< 10	10 to 100	10 to 100	10 to 100	10 to 100
CCn1c(-c2cccnc2[C@H](C)OC)c2c3cc(ccc31)-c1cc(O)cc(c1)C[C@H](NC(=O)[C@H](C(C)C)N(C)C(=O)[C@@H]1CN1)C(=O)N1CCC[C@H](N1)C(=O)OCC(C)(C)C2 [Example 100]	100 to 1000	10 to 100	10 to 100	10 to 100	10 to 100	10 to 100	10 to 100	10 to 100
CCn1c(-c2cccnc2[C@H](C)OC)c2c3cc(ccc31)-c1cc(O)cc(c1)C[C@H](NC(=O)[C@H](C(C)C)N1CCC3(CN(C(=O)[C@@H]4CN4)C3)C1=O)C(=O)N1CCC[C@H](N1)C(=O)OCC(C)(C)C2 [Example 109]	1000 to 10000	100 to 1000	100 to 1000	10 to 100	10 to 100	10 to 100	< 10	< 10
CCn1c(-c2cccnc2[C@H](C)OC)c2c3cc(ccc31)-c1cc(O)cc(c1)C[C@H](NC(=O)[C@H](C(C)C)N(C)C(=O)[C@H]1CN1)C(=O)N1CCC[C@H](N1)C(=O)OCC(C)(C)C2 [Example 112]	100 to 1000	100 to 1000	100 to 1000	10 to 100	100 to 1000	10 to 100	100 to 1000	100 to 1000
CCn1c(-c2cccnc2[C@H](C)OC)c2c3cc(ccc31)-c1cc(O)cc(c1)C[C@H](NC(=O)[C@H](C(C)C)N1CCC3(CCN(C(=O)[C@@H]4CN4)C3)C1=O)C(=O)N1CCC[C@H](N1)C(=O)OCC(C)(C)C2 (stereo partly drawn) [Example 113]	10 to 100	10 to 100	10 to 100	10 to 100	10 to 100	10 to 100	< 10	< 10
CCn1c(-c2cccnc2[C@H](C)OC)c2c3cc(ccc31)-c1cc(O)cc(c1)C[C@H](NC(=O)[C@H](C(C)C)N1CCC3(CN(C(=O)[C@H]4CN4)C3)C1=O)C(=O)N1CCC[C@H](N1)C(=O)OCC(C)(C)C2 [Example 115]	100 to 1000	100 to 1000	100 to 1000	10 to 100	10 to 100	10 to 100	< 10	< 10
CCn1c(-c2cccnc2[C@H](C)OC)c2c3cc(ccc31)-c1cccc(c1)C[C@H](NC(=O)[C@H](C(C)C)N(C)C(=O)[C@H]1CC[C@H](N=C=NC34CC(C3)C4)C1)C(=O)N1CCC[C@H](N1)C(=O)OCC(C)(C)C2 [Example 123]	1000 to 10000	> 10000	1000 to 10000	100 to 1000	> 10000	1000 to 10000	100 to 1000	100 to 1000
CCn1c(-c2cccnc2[C@H](C)OC)c2c3cc(ccc31)-c1cccc(c1)C[C@H](NC(=O)[C@H](C(C)C)N(C)C(=O)[C@H]1CC[C@H](N=C=NC(C)C)C1)C(=O)N1CCC[C@H](N1)C(=O)OCC(C)(C)C2 [Example 124]	1000 to 10000	> 10000	1000 to 10000	10 to 100	> 10000	1000 to 10000	10 to 100	10 to 100
CCn1c(-c2cccnc2[C@H](C)OC)c2c3cc(ccc31)-c1cccc(c1)C[C@H](NC(=O)[C@H](C(C)C)N(C)C(=O)[C@H]1CC[C@H](N=C=NC(C)(C)C)C1)C(=O)N1CCC[C@H](N1)C(=O)OCC(C)(C)C2 [Example 125]	1000 to 10000	> 10000	> 10000	100 to 1000	> 10000	> 10000	10 to 100	10 to 100
CCn1c(-c2cccnc2[C@H](C)OC)c2c3cc(ccc31)-c1cccc(c1)C[C@H](NC(=O)[C@H](C(C)C)N(C)C(=O)[C@H]1C[C@H](N=C=Nc3c(C)cccc3C)C1)C(=O)N1CCC[C@H](N1)C(=O)OCC(C)(C)C2 [Example 126]	1000 to 10000	100 to 1000	1000 to 10000	100 to 1000	1000 to 10000	1000 to 10000	100 to 1000	100 to 1000
